From the supplement of paper PMC10307832

Key:
Experiment in all cases: relative viability (nuclei count vs DMSO), 5 days (fraction); higher = more cells survive
[1] = compound: COc1cc2ncn(-c3cc(OCc4ccccc4C(F)(F)F)c(C(N)=O)s3)c2cc1OC + CC(=O)c1c(C)c2cnc(Nc3ccc(N4CCNCC4)cn3)nc2n(C2CCCC2)c1=O [Palbociclib] (partner 0.5 µM)
Summary of the method: (§1)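 Medians of duplicate plates are given as relative viability. That measure is the nuclei count in treated wells divided by the count in vehicle wells. Counts were taken on 4× images of lung cancer cell lines in 1536-well plates, 5 days after pin-tool dosing the day after seeding with one drug alone or a fixed anchor-drug dose plus five library-drug doses (not always all listed) in √10 steps.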

[2] = compound: COc1cc2ncn(-c3cc(OCc4ccccc4C(F)(F)F)c(C(N)=O)s3)c2cc1OC + CS(=O)(=O)N1CCN(Cc2cc3nc(-c4cccc5[nH]ncc45)nc(N4CCOCC4)c3s2)CC1 [Pictilisib] (partner 1 µM)
Summary of the method: as §1

[3] = compound: COc1cc2ncn(-c3cc(OCc4ccccc4C(F)(F)F)c(C(N)=O)s3)c2cc1OC + N=C(N)NC(=N)NCCc1ccccc1 [Phenformin] (partner 250 µM)
Summary of the method: as §1

[4] = compound: COc1cc2ncn(-c3cc(OCc4ccccc4C(F)(F)F)c(C(N)=O)s3)c2cc1OC + Nc1ncn([C@H]2C[C@H](O)[C@@H](CO)O2)c(=O)n1 [Decitabine] (partner 2 µM)
Summary of the method: as §1

Row | Cell Line | relative viability ([1]; first compound 0.05 µM) | relative viability ([1]; first compound 0.1581 µM) | relative viability ([1]; first compound 0.5 µM) | relative viability ([1]; first compound 1.581 µM) | relative viability ([1]; first compound 5 µM) | relative viability ([2]; first compound 0.05 µM) | relative viability ([2]; first compound 0.1581 µM) | relative viability ([2]; first compound 0.5 µM) | relative viability ([2]; first compound 1.581 µM) | relative viability ([2]; first compound 5 µM) | relative viability ([3]; first compound 0.05 µM) | relative viability ([3]; first compound 0.1581 µM) | relative viability ([3]; first compound 0.5 µM) | relative viability ([3]; first compound 5 µM) | relative viability ([4]; first compound 0.05 µM) | relative viability ([4]; first compound 0.1581 µM) | relative viability ([4]; first compound 0.5 µM) | relative viability ([4]; first compound 1.581 µM) | relative viability ([4]; first compound 5 µM) | relative viability ([3]; first compound 1.581 µM)
1 | H3255 | 0.315 | 0.285 | 0.306 | 0.256 | 0.264 | 0.458 | 0.467 | 0.247 | 0.21 | 0.187 | 0.365 | 0.37 | 0.282 | 0.304 | 0.518 | 0.674 | 0.625 | 0.312 | 0.294 | –
2 | EPLC-272H | 0.273 | 0.322 | 0.222 | 0.144 | 0.226 | 0.354 | 0.202 | 0.287 | 0.173 | 0.135 | – | 0.323 | 0.151 | 0.15 | 0.356 | 0.362 | 0.168 | 0.113 | 0.133 | 0.135
3 | RERF-LC-KJ | 1.03 | 1.16 | 0.71 | 0.616 | 0.46 | 0.557 | 0.692 | 0.269 | – | 0.185 | 0.376 | 0.396 | 0.229 | 0.259 | 0.802 | 0.633 | 0.27 | 0.198 | 0.25 | 0.272
4 | NCI-H1793 | 0.229 | 0.357 | 0.233 | 0.247 | 0.177 | 0.272 | 0.308 | 0.179 | 0.192 | 0.228 | 0.367 | 0.413 | 0.182 | 0.136 | 0.244 | 0.469 | 0.408 | 0.223 | 0.137 | 0.17
5 | EKVX | 0.362 | 0.438 | 0.371 | 0.248 | 0.219 | 0.42 | 0.516 | 0.427 | 0.262 | 0.291 | 0.236 | 0.151 | 0.188 | 0.197 | 0.324 | 0.381 | 0.273 | 0.175 | 0.204 | –
6 | ChaGo-K-1 | 0.948 | 0.878 | 0.649 | 0.247 | 0.147 | 0.676 | 0.419 | 0.594 | 0.322 | 0.248 | 0.638 | 0.476 | 0.49 | 0.128 | 0.567 | 0.504 | 0.43 | 0.255 | 0.162 | 0.163
7 | NCI-H23 | 0.313 | 0.408 | 0.285 | 0.148 | 0.121 | 0.451 | 0.339 | 0.228 | 0.148 | 0.117 | 0.798 | 0.821 | 0.433 | 0.125 | 0.296 | 0.281 | 0.176 | 0.191 | 0.151 | 0.129
8 | EMC-BAC-2 | 0.478 | 0.512 | 0.476 | 0.376 | 0.272 | 0.581 | 0.46 | 0.526 | 0.352 | 0.139 | 0.545 | 0.528 | 0.465 | 0.142 | 1.12 | 1.05 | 0.963 | 0.504 | 0.253 | 0.215
9 | LOU-NH91 | 0.529 | 0.479 | 0.517 | 0.446 | 0.333 | 0.554 | 0.544 | 0.51 | 0.399 | 0.418 | 0.734 | 0.855 | 0.526 | 0.432 | 0.841 | 0.84 | 0.761 | 0.513 | 0.344 | 0.297
10 | LU99A | 0.408 | 0.386 | 0.345 | 0.184 | 0.145 | 0.307 | 0.342 | 0.271 | 0.159 | 0.15 | 1.01 | 0.865 | 0.723 | 0.174 | 0.767 | 0.825 | 0.604 | 0.194 | 0.191 | 0.241
11 | NCI-H1395 | 0.614 | 0.763 | 0.507 | 0.377 | 0.28 | 0.609 | 0.686 | 0.461 | 0.635 | 0.438 | 0.459 | 0.438 | 0.386 | 0.295 | 0.736 | 0.753 | 0.596 | 0.373 | 0.342 | 0.335
12 | NCI-H460 | 0.185 | 0.172 | 0.173 | 0.0095 | 0.0133 | 0.401 | 0.206 | 0.323 | 0.0526 | 0.183 | 0.476 | 0.49 | 0.0454 | 0.0125 | 0.495 | 0.15 | 0.257 | 0.0216 | 0.0165 | 0.0127
13 | 201T | 0.363 | 0.38 | 0.335 | 0.349 | 0.28 | 0.717 | 0.743 | 0.682 | 0.319 | 0.247 | 0.482 | 0.252 | 0.413 | 0.205 | 0.866 | 0.877 | 0.851 | 0.562 | 0.251 | 0.242
14 | NCI-H1944 | 0.412 | 0.373 | 0.308 | 0.205 | 0.119 | 0.368 | 0.363 | 0.307 | 0.206 | 0.166 | 0.211 | 0.234 | 0.174 | 0.0856 | 0.468 | 0.465 | 0.399 | 0.235 | 0.153 | 0.106
15 | NCI-H2405 | 0.511 | 0.508 | 0.382 | 0.343 | 0.332 | 0.512 | 0.265 | 0.458 | 0.366 | 0.27 | 0.437 | 0.274 | 0.29 | 0.246 | 0.754 | 0.704 | 0.506 | 0.373 | 0.324 | 0.322
16 | NCI-H1703 | – | – | – | – | – | 0.256 | 0.227 | 0.2 | 0.126 | 0.172 | – | – | – | – | – | – | – | – | – | –
17 | NCI-H1755 | 0.452 | 0.442 | 0.429 | 0.316 | 0.328 | 0.457 | 0.371 | 0.355 | 0.203 | 0.169 | 0.572 | 0.622 | 0.531 | 0.243 | 0.702 | 0.682 | 0.716 | 0.57 | 0.397 | 0.319
